The values that follow are results of earlier work, collected in article PMC10449632, “Structural basis for translation inhibition by the glycosylated drosocin peptide” (Nature Chemical Biology, 2023).

This data set concerns in vitro translation, E. coli PURExpress system, firefly luciferase (Fluc) mRNA. The following applies: using the same system; cited from earlier work. As to the method:
Unmodified wild-type drosocin and Dro-3P have been reported to inhibit in vitro translation reactions[25],[26]; however, the naturally occurring glycosylated forms of drosocin have not been previously tested. To investigate this, we compared the effect of increasing concentrations (0–150 μM) of modified Dro1 and Dro2 with unmodified Dro, Dro-3P and Api137 using a cell-free in vitro translation system and firefly luciferase (Fluc) mRNA as a template (Fig. 1e), as we have used previously for assessing the activity of other PrAMPs[4],[6],[8],[9],[32],[33].

By IC50 is commonly meant the concentration that inhibits the measured activity by half. For “Bac7: type I PrAMP of mammalian origin (RRIRPRPPRLPRPRPRPLPFPRPGPRPIPRPLPFPRPGPRPIPRPLPFPRPGPRPIPRP; Bactenecin 7; UniProt P19661 131-189, looked up)”, the IC50 is below 1000 nM.
